One test addresses T1, CDK1 (Homo sapiens, UniProt P06493).
T1 construct: His; purchased Invitrogen PR4768C
The test is described as follows: Binding assay (FRET, LanthaScreen Eu, Tracer236) for CDK1. The settings on record: for IC50: read-out: CDK1 IC50 (enzyme binding assay). A general note: In TR-FRET formats the signal depends on donor and acceptor labels being close together.

Another test has as its target T2, CDK2 (Homo sapiens, UniProt P24941).
T2 construct: His; purchased Invitrogen PR4448B
Put plainly: Binding assay (FRET, LanthaScreen Eu, Tracer236) for CDK2. The settings on record: for IC50: read-out: CDK2 IC50 (enzyme binding assay).

The target in the next test is T3, CDK5 (Homo sapiens, UniProt Q00535).
T3 construct: His; purchased Invitrogen PR8543B
The test is described as follows: Binding assay (FRET, LanthaScreen Eu, Tracer236) for CDK5. The settings on record: for IC50: read-out: CDK5 IC50 (enzyme binding assay).

A further test deals with T4, CDK7/CycH/MNAT1 (Homo sapiens, UniProt P50613).
T4 construct: His; purchased Invitrogen PR6749B
Put plainly: Binding assay (FRET, LanthaScreen Eu, Tracer236) for CDK7. The settings on record: read-out: CDK7 IC50 (enzyme binding assay).

A further test addresses T5, CDK7 protein (Homo sapiens, UniProt P50613).
T5 construct: To verify endogenous CDK7 protein degradation; endogenous in cells; host or cells: A2780 (ECACC 93112519)
Put plainly: Western blot assay for CDK7 protein degradation in A2780 cells.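 Also: A is DC50 up to 100 nM B is 100 to 1000 nM C is above 1000 nM.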 The settings on record: 24 hours, read-out: Compound concentration that caused 50% CDK7 protein degradation in A2780 cells (DC50). In kind it is cell-based. As for the experimental part: Human ovarian cancer cell line, A2780 (Cat #93112519) was obtained from ECACC. Cells were grown in RPMI-1640 media (Invitrogen, Cat #22400105) supplemented with 10% FBS (Hyclone, Cat #SH30084.03) and 1% penicillin/streptomycin (Hyclone, Cat #SV30010) and cultured at 37° C., 5% Co2 in a humidified chamber. All cell lines were routinely tested for mycoplasma.
To verify endogenous CDK7 protein degradation upon treatment of CDK7-specific degrader, the western blot assay was conducted a 24 hours' time period. 6×10^5 cells/well of A2780 cells were plated in 6-well plate. After 24 hours, the cells were treated with various concentrations of the compound corresponding range. DMSO solvent without compound served as a control and final DMSO concentration was not to exceed 0.1% of total volume. After 24 hours of incubation at 37° C., 5% Co2 incubator, cells were collected and lysed with 60 ul of lysis buffer. Collected lysates were incubated for 30 min on ice and collect supernatant through centrifugation at 12,000 rpm for 10 min at 4° C. The protein in lysates were quantified with BCA protein quantification kit (Pierce, Cat #23227) following manufacture's protocol. Cell lysates were diluted into 1 ug/ul of concentration with lysis buffer. 20 ug of protein was loaded to each well of 4˜12% Bis-Tris gel (Invitrogen, Cat #NP0336BOX) with MOPS running buffer (Invitrogen, Cat #NP0001). The proteins were transferred from gel to membrane and incubated with primary antibody as followed at 4° C. overnight; CDK7 (CST, Cat #2090S) and β-actin (Santa Cruz, Cat #sc-47778) 1:20,000. The signals were developed and acquired with ImageQuant™ LAS 4000.
A general note: In western blotting, separated proteins are transferred to a membrane and probed.

The text below walks through data of patent publication US20240343732A1, “COMPOUNDS FOR DEGRADATION OF CYCLIN-DEPENDENT KINASE 7(CDK7)” (QURIENT CO., LTD., priority 2021, published 2024).

T3 sequence (Q00535 whole entry): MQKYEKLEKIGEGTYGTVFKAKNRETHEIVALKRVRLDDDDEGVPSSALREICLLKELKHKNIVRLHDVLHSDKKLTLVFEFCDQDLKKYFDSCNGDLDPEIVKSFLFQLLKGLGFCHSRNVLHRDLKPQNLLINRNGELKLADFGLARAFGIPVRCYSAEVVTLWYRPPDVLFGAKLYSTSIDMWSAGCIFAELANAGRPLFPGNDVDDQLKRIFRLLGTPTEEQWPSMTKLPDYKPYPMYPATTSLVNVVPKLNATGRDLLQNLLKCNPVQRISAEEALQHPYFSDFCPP
T3 sequence (Q15078 99-307 partner limits assumed): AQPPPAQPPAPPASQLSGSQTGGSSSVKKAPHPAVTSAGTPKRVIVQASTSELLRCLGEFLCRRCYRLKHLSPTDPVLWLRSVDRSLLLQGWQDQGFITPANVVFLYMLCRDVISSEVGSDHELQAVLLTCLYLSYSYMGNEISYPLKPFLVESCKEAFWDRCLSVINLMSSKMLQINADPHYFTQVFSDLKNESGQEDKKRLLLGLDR
T1 sequence (P06493 whole entry): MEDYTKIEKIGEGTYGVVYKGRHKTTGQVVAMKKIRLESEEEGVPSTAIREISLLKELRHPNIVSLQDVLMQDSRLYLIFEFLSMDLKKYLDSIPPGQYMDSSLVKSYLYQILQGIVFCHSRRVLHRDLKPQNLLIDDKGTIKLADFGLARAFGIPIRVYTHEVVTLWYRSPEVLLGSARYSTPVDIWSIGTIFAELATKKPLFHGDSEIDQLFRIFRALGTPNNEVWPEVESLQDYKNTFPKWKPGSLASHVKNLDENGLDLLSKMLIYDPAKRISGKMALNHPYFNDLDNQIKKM
T1 sequence (P14635 whole entry partner): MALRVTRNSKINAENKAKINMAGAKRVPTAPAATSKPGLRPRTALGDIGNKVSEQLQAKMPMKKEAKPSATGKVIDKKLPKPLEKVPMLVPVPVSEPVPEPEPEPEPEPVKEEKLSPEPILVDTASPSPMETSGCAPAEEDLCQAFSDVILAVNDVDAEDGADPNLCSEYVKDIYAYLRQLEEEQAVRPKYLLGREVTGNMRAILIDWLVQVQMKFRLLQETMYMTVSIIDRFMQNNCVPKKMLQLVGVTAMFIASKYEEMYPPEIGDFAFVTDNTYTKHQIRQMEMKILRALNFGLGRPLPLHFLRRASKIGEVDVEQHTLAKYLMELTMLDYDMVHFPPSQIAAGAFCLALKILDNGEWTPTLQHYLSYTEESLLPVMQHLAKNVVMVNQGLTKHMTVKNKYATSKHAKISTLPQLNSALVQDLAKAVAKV
T5 sequence (P50613 whole entry): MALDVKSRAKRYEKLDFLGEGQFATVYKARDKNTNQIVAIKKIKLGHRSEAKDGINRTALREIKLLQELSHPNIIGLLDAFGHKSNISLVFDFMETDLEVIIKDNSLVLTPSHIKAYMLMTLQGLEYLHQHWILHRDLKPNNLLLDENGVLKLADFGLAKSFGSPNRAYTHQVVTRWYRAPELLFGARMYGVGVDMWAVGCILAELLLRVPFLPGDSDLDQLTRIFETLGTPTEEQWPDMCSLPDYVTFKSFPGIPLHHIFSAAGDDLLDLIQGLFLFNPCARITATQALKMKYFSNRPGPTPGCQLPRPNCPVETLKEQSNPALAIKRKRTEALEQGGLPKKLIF
T4 sequence (P50613 whole entry): as above
T4 sequence (P51946 whole entry partner): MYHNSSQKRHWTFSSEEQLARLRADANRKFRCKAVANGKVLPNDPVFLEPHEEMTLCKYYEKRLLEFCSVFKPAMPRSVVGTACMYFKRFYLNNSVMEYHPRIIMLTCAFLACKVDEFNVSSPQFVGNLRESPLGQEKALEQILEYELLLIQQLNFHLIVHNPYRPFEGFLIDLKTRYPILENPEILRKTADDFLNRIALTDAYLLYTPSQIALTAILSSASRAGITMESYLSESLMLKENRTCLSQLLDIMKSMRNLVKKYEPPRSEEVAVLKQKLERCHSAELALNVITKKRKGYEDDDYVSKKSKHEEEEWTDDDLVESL
T4 sequence (P51948 whole entry partner): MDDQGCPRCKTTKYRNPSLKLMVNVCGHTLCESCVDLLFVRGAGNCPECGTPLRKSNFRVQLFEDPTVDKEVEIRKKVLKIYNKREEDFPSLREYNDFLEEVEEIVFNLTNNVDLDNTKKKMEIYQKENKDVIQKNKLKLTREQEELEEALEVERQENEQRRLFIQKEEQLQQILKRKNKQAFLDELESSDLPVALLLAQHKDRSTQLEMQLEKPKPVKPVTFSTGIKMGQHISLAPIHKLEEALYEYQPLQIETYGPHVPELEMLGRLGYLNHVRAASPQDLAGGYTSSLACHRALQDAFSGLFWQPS

The IC50 is the concentration needed to halve the response being measured. For the molecule `CC(C)c1cnn2c(NCc3ccccc3-c3nccc4cc(NCC5CCN(CC6CCN(c7ccc8c(c7)C(=O)N(C7CCC(=O)NC7=O)C8=O)CC6)CC5)ccc34)nc(O[C@@H]3CCCNC3)nc12` (stereo partly shown) [Compound 30], on CDK1, the “CDK1/CDK7: Selectivity of CDK7 inhibition over CDK1 inhibition” value is “A (A indicates [fold] > 500)” and the IC50 is > 1 µM. For the same molecule, on CDK2, the “CDK2/CDK7: Selectivity of CDK7 inhibition over CDK2 inhibition” value was “B (B indicates 50 < [fold] ≤ 500)” and the IC50 was > 1 µM. On CDK5, the “CDK5/CDK7: Selectivity of CDK7 inhibition over CDK5 inhibition” value is “B (B indicates 50 < [fold] ≤ 500)” and the IC50 was > 1 µM. Also, the IC50 at CDK7/CycH/MNAT1 was ≤ 0.1 µM. The DC50 on CDK7 protein is ≤ 0.1 µM.
As for `CC(C)c1cnn2c(NCc3ccccc3-c3nccc4cc(NCC5CCN(C6CCN(c7ccc8c(c7)C(=O)N(C7CCC(=O)NC7=O)C8=O)CC6)CC5)ccc34)nc(O[C@@H]3CCCNC3)nc12` (stereo partly shown) [Compound 31], the “CDK1/CDK7: Selectivity of CDK7 inhibition over CDK1 inhibition” value at CDK1 was “A (A indicates [fold] > 500)”. For the same molecule, the half-inhibitory concentration (IC50) is > 1 µM on CDK1, > 1 µM at CDK2, > 1 µM on CDK5 and ≤ 0.1 µM on CDK7/CycH/MNAT1. The “CDK2/CDK7: Selectivity of CDK7 inhibition over CDK2 inhibition” value at CDK2 is “A (A indicates [fold] > 500)”. In addition, at CDK5, the “CDK5/CDK7: Selectivity of CDK7 inhibition over CDK5 inhibition” value is “B (B indicates 50 < [fold] ≤ 500)”. Also, at CDK7 protein, the DC50 is ≤ 0.1 µM.
`CC(C)c1cnn2c(NCc3ccccc3-c3nccc4cc(NCC5CCN(CC6CCN(c7ccc8c(c7)C(=O)N(C7CCC(=O)NC7=O)C8=O)CC6)CC5)ccc34)nc(N[C@@H]3CCCNC3)nc12` (stereo partly shown) [Compound 32]: on CDK1, the “CDK1/CDK7: Selectivity of CDK7 inhibition over CDK1 inhibition” value is “A (A indicates [fold] > 500)”. Besides, the IC50 on CDK1 is > 1 µM; on CDK2 it was > 1 µM; on CDK5, > 1 µM; on CDK7/CycH/MNAT1, ≤ 0.1 µM. For the same molecule, the “CDK2/CDK7: Selectivity of CDK7 inhibition over CDK2 inhibition” value on CDK2 was “A (A indicates [fold] > 500)”. Moreover, the “CDK5/CDK7: Selectivity of CDK7 inhibition over CDK5 inhibition” value on CDK5 is “B (B indicates 50 < [fold] ≤ 500)”. Besides, at CDK7 protein, the DC50 is ≤ 0.1 µM.
`CC(C)c1cnn2c(NCc3ccccc3-c3nccc4cc(N5CCN(CC6CCN(c7ccc8c(c7)C(=O)N(C7CCC(=O)NC7=O)C8=O)CC6)CC5)ccc34)nc(O[C@@H]3CCCNC3)nc12` (stereo partly shown) [Compound 33]: at CDK1, the “CDK1/CDK7: Selectivity of CDK7 inhibition over CDK1 inhibition” value was “A (A indicates [fold] > 500)” and the IC50 is > 1 µM. Further, at CDK2, the “CDK2/CDK7: Selectivity of CDK7 inhibition over CDK2 inhibition” value was “A (A indicates [fold] > 500)” and the IC50 was > 1 µM. Also, at CDK5, the “CDK5/CDK7: Selectivity of CDK7 inhibition over CDK5 inhibition” value is “B (B indicates 50 < [fold] ≤ 500)” and the IC50 is > 1 µM. Further, at CDK7/CycH/MNAT1, the IC50 was ≤ 0.1 µM. For the same molecule, on CDK7 protein, the DC50 was ≤ 0.1 µM.
Turning to `CC(C)c1cnn2c(NCc3ccccc3-c3nccc4cc(N5CCC(CN6CCN(c7ccc8c(c7)C(=O)N(C7CCC(=O)NC7=O)C8=O)CC6)CC5)ccc34)nc(O[C@@H]3CCCNC3)nc12` (stereo partly shown) [Compound 34], at CDK1, the “CDK1/CDK7: Selectivity of CDK7 inhibition over CDK1 inhibition” value was “A (A indicates [fold] > 500)”. The IC50 was > 1 µM at CDK1, > 1 µM at CDK2, > 1 µM at CDK5 and ≤ 0.1 µM on CDK7/CycH/MNAT1. The “CDK2/CDK7: Selectivity of CDK7 inhibition over CDK2 inhibition” value on CDK2 was “A (A indicates [fold] > 500)”. Further, at CDK5, the “CDK5/CDK7: Selectivity of CDK7 inhibition over CDK5 inhibition” value was “A (A indicates [fold] > 500)”. Besides, on CDK7 protein, the DC50 was ≤ 0.1 µM.
